Structures can show the parent of a compound that is named as a salt.
Key:
[1] = molecular target: baculovirus-expressed ALK (Homo sapiens, UniProt Q9UM73); assay: ALK kinase inhibition, TRF/ELISA; format: biochemical; settings: read-out: ALK Potency
Outline: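 Eu-PT66 anti-phosphotyrosine TRF read-out measured phosphorylation of plate-bound GST-PLC-γ (coated at 10 μg/mL). The phosphorylation was driven by 30 ng/mL ALK for 15 minutes at 37° C.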

[2] = molecular target: baculovirus-expressed JAK2 kinase (Homo sapiens, UniProt O60674); assay: biochemical; settings: 0.2 μM ATP; read-out: JAK2 Potency
baculovirus-expressed JAK2 kinase, sequence (O60674 whole entry): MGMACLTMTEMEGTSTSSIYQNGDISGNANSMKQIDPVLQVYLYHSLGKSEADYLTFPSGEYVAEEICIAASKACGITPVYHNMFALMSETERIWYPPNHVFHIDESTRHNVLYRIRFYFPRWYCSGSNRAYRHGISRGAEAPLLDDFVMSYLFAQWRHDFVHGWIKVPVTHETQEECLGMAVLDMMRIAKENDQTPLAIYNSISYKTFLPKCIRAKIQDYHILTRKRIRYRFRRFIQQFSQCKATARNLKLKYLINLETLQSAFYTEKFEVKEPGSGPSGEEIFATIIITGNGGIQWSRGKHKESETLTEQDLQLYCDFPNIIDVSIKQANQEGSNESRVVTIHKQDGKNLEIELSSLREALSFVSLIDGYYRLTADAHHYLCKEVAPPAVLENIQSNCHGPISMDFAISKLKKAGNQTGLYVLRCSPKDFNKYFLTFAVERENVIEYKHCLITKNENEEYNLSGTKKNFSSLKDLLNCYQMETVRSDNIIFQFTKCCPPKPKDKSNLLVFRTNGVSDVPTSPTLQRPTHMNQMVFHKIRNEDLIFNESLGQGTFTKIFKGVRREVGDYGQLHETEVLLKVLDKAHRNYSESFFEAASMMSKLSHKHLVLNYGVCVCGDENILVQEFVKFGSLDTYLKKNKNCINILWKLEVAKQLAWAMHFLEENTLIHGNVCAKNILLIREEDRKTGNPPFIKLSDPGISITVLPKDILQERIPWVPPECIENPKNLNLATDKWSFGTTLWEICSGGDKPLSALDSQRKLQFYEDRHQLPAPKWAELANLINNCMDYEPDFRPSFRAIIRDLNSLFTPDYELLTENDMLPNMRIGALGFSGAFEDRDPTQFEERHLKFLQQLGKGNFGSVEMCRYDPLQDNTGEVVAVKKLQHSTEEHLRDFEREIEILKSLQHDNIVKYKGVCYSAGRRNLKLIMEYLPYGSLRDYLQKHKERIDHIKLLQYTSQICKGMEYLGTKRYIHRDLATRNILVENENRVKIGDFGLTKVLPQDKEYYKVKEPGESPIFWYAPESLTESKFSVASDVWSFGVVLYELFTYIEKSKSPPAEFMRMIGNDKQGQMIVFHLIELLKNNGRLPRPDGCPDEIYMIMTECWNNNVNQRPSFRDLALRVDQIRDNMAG
Outline: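 IC50 derived by variable-slope sigmoidal fit of percent inhibition against log compound concentration. Baculovirus-expressed JAK2 (15 ng/mL) phosphorylated a plate-bound biotinylated 15-mer peptide for 20 min at room temperature; detection by time-resolved fluorescence.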

baculovirus-expressed ALK, sequence (Q9UM73 19-1620): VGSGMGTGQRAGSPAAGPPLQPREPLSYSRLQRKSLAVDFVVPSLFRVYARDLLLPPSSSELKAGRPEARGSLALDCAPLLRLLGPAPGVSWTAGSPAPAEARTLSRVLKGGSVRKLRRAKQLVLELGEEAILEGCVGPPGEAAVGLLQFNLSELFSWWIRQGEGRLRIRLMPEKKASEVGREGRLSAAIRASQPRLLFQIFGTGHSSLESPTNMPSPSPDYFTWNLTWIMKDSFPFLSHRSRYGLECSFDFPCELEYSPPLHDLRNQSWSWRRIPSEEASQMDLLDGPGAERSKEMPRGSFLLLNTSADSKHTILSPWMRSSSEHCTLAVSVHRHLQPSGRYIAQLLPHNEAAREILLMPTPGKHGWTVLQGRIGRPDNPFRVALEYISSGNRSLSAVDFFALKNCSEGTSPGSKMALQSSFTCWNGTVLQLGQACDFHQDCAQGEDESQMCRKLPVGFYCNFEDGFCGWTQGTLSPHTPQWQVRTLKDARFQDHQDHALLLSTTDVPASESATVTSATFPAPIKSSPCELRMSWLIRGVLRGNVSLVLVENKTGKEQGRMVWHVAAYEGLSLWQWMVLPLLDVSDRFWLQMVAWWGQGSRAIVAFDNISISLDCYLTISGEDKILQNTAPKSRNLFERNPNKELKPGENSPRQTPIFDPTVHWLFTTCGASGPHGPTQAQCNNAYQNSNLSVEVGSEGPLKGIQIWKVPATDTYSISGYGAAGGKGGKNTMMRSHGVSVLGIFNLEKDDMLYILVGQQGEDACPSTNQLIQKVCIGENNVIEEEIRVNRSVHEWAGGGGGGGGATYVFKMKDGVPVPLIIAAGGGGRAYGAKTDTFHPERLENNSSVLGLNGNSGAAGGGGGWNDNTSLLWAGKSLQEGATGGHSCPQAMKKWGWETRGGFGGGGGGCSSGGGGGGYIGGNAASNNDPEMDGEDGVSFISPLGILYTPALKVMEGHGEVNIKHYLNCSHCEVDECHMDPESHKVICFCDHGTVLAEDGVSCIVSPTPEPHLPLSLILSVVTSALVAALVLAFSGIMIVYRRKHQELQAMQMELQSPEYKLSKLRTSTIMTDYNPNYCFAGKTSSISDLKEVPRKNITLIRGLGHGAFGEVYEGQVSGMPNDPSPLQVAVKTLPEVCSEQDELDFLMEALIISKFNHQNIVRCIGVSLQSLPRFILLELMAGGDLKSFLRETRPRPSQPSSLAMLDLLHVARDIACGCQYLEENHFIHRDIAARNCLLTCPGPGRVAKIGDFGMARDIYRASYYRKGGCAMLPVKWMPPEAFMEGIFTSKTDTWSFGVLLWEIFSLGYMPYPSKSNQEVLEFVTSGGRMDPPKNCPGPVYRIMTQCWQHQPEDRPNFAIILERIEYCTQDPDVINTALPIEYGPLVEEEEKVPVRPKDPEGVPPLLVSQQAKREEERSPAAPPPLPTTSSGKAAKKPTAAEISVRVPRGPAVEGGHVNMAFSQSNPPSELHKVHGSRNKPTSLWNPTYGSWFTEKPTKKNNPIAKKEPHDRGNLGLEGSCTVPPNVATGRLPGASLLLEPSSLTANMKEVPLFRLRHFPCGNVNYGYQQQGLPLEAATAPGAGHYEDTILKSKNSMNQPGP

CC(O)CN1CCC(Oc2cccc(-c3nc4c(N[C@H]5[C@@H](C(N)=O)[C@@H]6C=C[C@H]5C6)c(Cl)cnc4[nH]3)c2)CC1 (stereo partly drawn) [Compound CCLI, (1S,2S,3R,4R)-3-(6-chloro-2-(3-(1-(2-hydroxypropyl)piperidin-4-yloxy)phenyl)-3H-imidazo[4,5-b]pyridine-7-ylamino)pyridin[2.2.1]hept-5-ene-2-carboxamide]
IC50 [1]: < 100 nM
IC50 [2]: < 100 nM

CNC(=O)[C@@H]1[C@H](Nc2c(Cl)cnc3[nH]c(-c4ccc(N5CCOCC5)cc4)nc23)[C@H]2C=C[C@@H]1C2 [Compound CLXXVIII, (1S,2S,3R,4R)-3-(6-chloro-2-(4-morpholinophenyl)-3H-imidazo[4,5-b]pyridin-7-ylamino)-N-methylbicyclo[2.2.1]hept-5-ene-2-carboxamide]
IC50 [1]: < 100 nM
IC50 [2]: < 100 nM

CN1CCN(C(=O)c2cccc(-c3nc4c(N[C@H]5[C@@H](C(N)=O)[C@@H]6C=C[C@H]5C6)c(Cl)cnc4[nH]3)c2)CC1 [Compound CCXXI, (1S,2S,3R,4R)-3-(6-chloro-2-(3-(4-methylpiperazine-1-carbonyl)phenyl)-3H-imidazo[4,5-b]pyridin-7-ylamino)bicyclo[2.2.1]hept-5-ene-2-carboxamide]
IC50 [1]: 100 to 1000 nM
IC50 [2]: < 100 nM

CN1CCN(C(=O)COc2cccc(-c3nc4c(N[C@H]5[C@@H](C(N)=O)[C@@H]6C=C[C@H]5C6)c(Cl)cnc4[nH]3)c2)CC1 [Compound CCXLIII, (1S,2S,3R,4R)-3-(6-chloro-2-(3-(2-(4-methylpiperazin-1-yl)-2-oxoethoxy)phenyl)-3H-imidazo[4,5-b]pyridine-7-ylamino)pyridin[2.2.1]hept-5-ene-2-carboxamide]
IC50 [1]: < 100 nM
IC50 [2]: < 100 nM

NC(=O)[C@@H]1[C@H](Nc2c(Cl)cnc3[nH]c(-c4ccc(OCCN5CCOCC5)cc4)nc23)[C@H]2C=C[C@@H]1C2 [Compound CCXXXIX, (1S,2S,3R,4R)-3-(6-chloro-2-(4-(2-morpholinoethoxy)phenyl)-3H-imidazo[4,5-b]pyridin-7-ylamino)bicyclo[2.2.1]hept-5-ene-2-carboxamide]
IC50 [1]: < 100 nM
IC50 [2]: < 100 nM

NC(=O)[C@@H]1[C@H](Nc2c(Cl)cnc3[nH]c(-c4cccc(C(=O)O)c4)nc23)[C@H]2C=C[C@@H]1C2 [Compound CCXVII, 3-(7-((1R,2R,3S,4S)-3-carbamoylbicyclo[2.2.1]hept-5-en-2-ylamino)-6-chloro-3H-imidazo[4,5-b]pyridin-2-yl)benzoic acid]
IC50 [1]: 1000 to 10000 nM
IC50 [2]: < 100 nM

NC(=O)[C@@H]1[C@H](Nc2c(Cl)cnc3[nH]c(-c4ccc(N5CCOCC5)cc4)nc23)[C@H]2CC[C@@H]1O2 [Compound CCIV, (1S,2R,3S,4R)-3-(6-chloro-2-(4-morpholinophenyl)-3H-imidazo[4,5-b]pyridin-7-ylamino)-7-oxabicyclo[2.2.1]heptane-2-carboxamide]
IC50 [1]: 1000 to 10000 nM
IC50 [2]: < 100 nM

NC(=O)[C@@H]1[C@H](Nc2c(Cl)cnc3[nH]c(-c4ccc(OCC(=O)O)cc4)nc23)[C@H]2C=C[C@@H]1C2 [Compound CCXLVI, 2-(4-(7-((1R,2R,3S,4S)-3-carbamoylbicyclo[2.2.1]hept-5-en-2-ylamino)-6-chloro-3H-imidazo[4,5-b]pyridin-2-yl)phenoxy)acetic acid]
IC50 [1]: 100 to 1000 nM
IC50 [2]: < 100 nM

NC(=O)[C@@H]1[C@H](Nc2c(Cl)cnc3[nH]c(-c4sc(N5CCOCC5)nc4Cl)nc23)[C@H]2C=C[C@@H]1C2 [Compound CLX, (1S,2S,3R,4R)-3-[6-Chloro-2-(4-chloro-2-morpholin-4-yl-thiazol-5-yl)-3H-imidazo[4,5-b]pyridin-7-ylamino]-bicyclo[2.2.1]hept-5-ene-2-carboxylic acid amide]
IC50 [1]: < 100 nM
IC50 [2]: < 100 nM

NC(=O)[C@@H]1[C@H](Nc2c(Cl)cnc3[nH]c(-c4cccc(-n5cccn5)c4)nc23)[C@H]2C=C[C@@H]1C2 [Compound CXXV, (1S,2S,3R,4R)-3-[6-Chloro-2-(3-pyrazol-1-yl-phenyl)-3H-imidazo[4,5-b]pyridin-7-ylamino]-bicyclo[2.2.1]hept-5-ene-2-carboxylic acid amide]
IC50 [1]: 1000 to 10000 nM
IC50 [2]: < 100 nM

NC(=O)[C@@H]1[C@H](Nc2c(Cl)cnc3[nH]c(-c4sc(N5CCCC5)nc4Cl)nc23)[C@H]2C=C[C@@H]1C2 [Compound CLXVI, (1S,2S,3R,4R)-3-[6-Chloro-2-(4-chloro-2-pyrrolidin-1-yl-thiazol-5-yl)-3H-imidazo[4,5-b]pyridin-7-ylamino]-bicyclo[2.2.1]hept-5-ene-2-carboxylic acid amide]
IC50 [1]: < 100 nM
IC50 [2]: < 100 nM

NC(=O)[C@@H]1[C@H](Nc2c(Cl)cnc3[nH]c(-c4ccc(CN5CCOCC5)cc4)nc23)[C@H]2C=C[C@@H]1C2 [Compound III, (1S,2S,3R,4R)-3-[6-Chloro-2-(4-morpholin-4-ylmethyl-phenyl)-3H-imidazo[4,5-b]pyridine-7-ylamino]-bicyclo[2.2.1]hept-5-ene-2-carboxylic acid amide-trifluoroacetate salt]
IC50 [1]: < 100 nM
IC50 [2]: < 100 nM

NC(=O)[C@@H]1[C@H](Nc2c(Cl)cnc3[nH]c(Nc4ccccc4)nc23)[C@H]2C=C[C@@H]1C2 [Compound LXVII, (1S,2S,3R,4R)-3-(6-Chloro-2-phenylamino-3H-imidazo[4,5-b]pyridine-7-ylamino)-bicyclo[2.2.1]hept-5-ene-2-carboxylic acid amide]
IC50 [1]: 100 to 1000 nM
IC50 [2]: < 100 nM

CC(C)NC(=O)[C@@H]1[C@H](Nc2c(Cl)cnc3[nH]c(-c4cnn(C)c4)nc23)[C@H]2C=C[C@@H]1C2 [Compound CLXXXVII]
IC50 [1]: 100 to 1000 nM
IC50 [2]: 100 to 1000 nM

CN(C)CCNC(=O)c1cccc(-c2nc3c(N[C@H]4[C@@H](C(N)=O)[C@@H]5C=C[C@H]4C5)c(Cl)cnc3[nH]2)c1 [Compound CCXXXI, (1S,2S,3R,4R)-3-(6-chloro-2-(3-(2-(dimethylamino)ethylcarbamoyl)phenyl)-3H-imidazo[4,5-b]pyridine-7-ylamino)pyridin[2.2.1]hept-5-ene-2-carboxamide]
IC50 [1]: < 100 nM
IC50 [2]: < 100 nM

NC(=O)[C@@H]1[C@H](Nc2c(Br)cnc3[nH]c(-c4sc(N5CCOCC5)nc4Cl)nc23)[C@H]2C=C[C@@H]1C2 [Compound CLXI, (1S,2S,3R,4R)-3-[6-Bromo-2-(4-chloro-2-morpholin-4-yl-thiazol-5-yl)-3H-imidazo[4,5-b]pyridin-7-ylamino]-bicyclo[2.2.1]hept-5-ene-2-carboxylic acid amide]
IC50 [1]: < 100 nM
IC50 [2]: < 100 nM

NC(=O)[C@@H]1[C@H](Nc2c(Cl)cnc3[nH]c(-c4cn5c(n4)CCCC5)nc23)[C@H]2C=C[C@@H]1C2 [Compound CCXIII, (1S,2S,3R,4R)-3-(6-chloro-2-(5,6,7,8-tetrahydroimidazo[1,2-a]pyridin-2-yl)-3H-imidazo[4,5-b]pyridin-7-ylamino)bicyclo[2.2.1]hept-5-ene-2-carboxamide]
IC50 [1]: 100 to 1000 nM
IC50 [2]: < 100 nM

COc1cc(N2CCN(C)CC2)ccc1-c1nc2c(N[C@H]3[C@@H](C(=O)N(C)C)[C@@H]4C=C[C@H]3C4)c(Cl)cnc2[nH]1 [Compound CXCVII, (1S,2S,3R,4R)-3-(6-chloro-2-(2-methoxy-4-(4-methylpiperazin-1-yl)phenyl)-3H-imidazo[4,5-b]pyridin-7-ylamino)-N,N-dimethylbicyclo[2.2.1]hept-5-ene-2-carboxamide]
IC50 [1]: < 100 nM
IC50 [2]: 100 to 1000 nM

Cc1cc(N2CCOCC2)ccc1-c1nc2c(N[C@H]3[C@@H](C(N)=O)[C@@H]4C=C[C@H]3C4)c(Cl)cnc2[nH]1 [Compound CXXI, (1S,2S,3R,4R)-3-[6-Chloro-2-(2-methyl-4-morpholin-4-yl-phenyl)-3H-imidazo[4,5-b]pyridin-7-ylamino]-bicyclo[2.2.1]hept-5-ene-2-carboxylic acid amide]
IC50 [1]: 100 to 1000 nM
IC50 [2]: < 100 nM

Cc1nc(C2CCNCC2)sc1-c1nc2c(N[C@H]3[C@@H](C(N)=O)[C@@H]4C=C[C@H]3C4)c(Cl)cnc2[nH]1 [Compound LXIV, (1S,2S,3R,4R)-3-[6-Chloro-2-(4-methyl-2-piperidin-4-yl-thiazol-5-yl)-3H-imidazo[4,5-b]pyridine-7-ylamino]-bicyclo[2.2.1]hept-5-ene-2-carboxylic acid amide]
IC50 [1]: < 100 nM
IC50 [2]: < 100 nM

Cc1ncc(-c2nc3c(N[C@H]4[C@@H](C(N)=O)[C@@H]5C=C[C@H]4C5)c(Cl)cnc3[nH]2)s1 [Compound CCVIII, (1S,2S,3R,4R)-3-(6-chloro-2-(2-methylthiazol-5-yl)-3H-imidazo[4,5-b]pyridin-7-ylamino)bicyclo[2.2.1]hept-5-ene-2-carboxamide]
IC50 [1]: 100 to 1000 nM
IC50 [2]: < 100 nM

NC(=O)[C@@H]1[C@H](Nc2c(Br)cnc3[nH]c(-c4ccc(N5CCOCC5)c(Cl)c4)nc23)[C@H]2C=C[C@@H]1C2 [Compound CXXXV, (1S,2S,3R,4R)-3-[6-Bromo-2-(3-chloro-4-morpholin-4-yl-phenyl)-3H-imidazo[4,5-b]pyridin-7-ylamino]-bicyclo[2.2.1]hept-5-ene-2-carboxylic acid amide]
IC50 [1]: 100 to 1000 nM
IC50 [2]: < 100 nM

CCNC(=O)N1CCC(n2cc(-c3nc4c(N[C@H]5[C@@H](C(N)=O)[C@@H]6C=C[C@H]5C6)c(Cl)cnc4[nH]3)cn2)CC1 [Compound LXII, 4-{4-[7-((1R,2R,3S,4S)-3-Carbamoyl-bicyclo[2.2.1]hept-5-ene-2-ylamino)-6-chloro-3H-imidazo[4,5-b]pyridine-2-yl]-pyrazol-1-yl)-piperidine-1-carboxylic acid ethylamide]
IC50 [1]: < 100 nM
IC50 [2]: < 100 nM

NC(=O)[C@@H]1[C@H](Nc2c(Cl)cnc3[nH]c(-c4ccc(C(=O)O)cc4)nc23)[C@H]2C=C[C@@H]1C2 [Compound CCXVIII, 4-(7-((1R,2R,3S,4S)-3-carbamoylbicyclo[2.2.1]hept-5-en-2-ylamino)-6-chloro-3H-imidazo[4,5-b]pyridin-2-yl)benzoic acid]
IC50 [1]: 100 to 1000 nM
IC50 [2]: < 100 nM
